According to EP4763837A1, “PHOTOCHROMIC COMPOUND, CURABLE COMPOSITION, OPTICAL ARTICLE, LENS, AND EYEGLASSES” (TOKUYAMA CORPORATION, priority 2023, dated 2025):
Where “and” joins values, the source holds several entries; their conditions need not be identical. Equal values may be shown once.

How the values were obtained:
[1] = Solubility of photochromic compound in polymerizable compounds; type: physicochemical; parameters: key: 1: No haze is seen when checked under transmission of light, and the sample is completely dissolved.; 2: A very thin haze is seen to the extent that it can be seen under transmission of light.; 3: A thin haze that can be seen under transmission of light is seen.; 4: A haze can be seen even without transmission of light; conditions: 35 µmol/g in radical polymerizable compound composition of Example 21, 65 to 70°C; for Dissolution for 15 min / Dissolution for 30 min / Dissolution for 45 min: stirring and ultrasonic irradiation; for Dissolution for 1 hour: head reads 60 min in Tables 8 to 14
Description: The photochromic compounds according to Examples and Comparative examples shown in Table 5 were evaluated for solubility in polymerizable compounds.
Specifically, a sample was prepared by adding each of the photochromic compounds to the composition, which consisted of a radical polymerizable compound, among the curable compositions used in Example 21.
Note that, this test was performed using "YOKAI-KUN USS-1" manufactured by NIHONSEIKI KAISHA LTD. under the following conditions: • Dissolution temperature: 65 to 70°C • Stirring condition: Stirring dial of 5. Ultrasonic irradiation condition: Irradiation interval of 3 sec.
Dissolution was checked every 15 minutes up to 1 hour later, the sample was visually checked by transmitting light through the sample, and a degree of dissolution was evaluated according to the following four evaluation criteria.
• 1: No haze is seen when checked under transmission of light, and the sample is completely dissolved. • 2: A very thin haze is seen to the extent that it can be seen under transmission of light. • 3: A thin haze that can be seen under transmission of light is seen. • 4: A haze can be seen even without transmission of light.
A shorter time required for the evaluation result to be 1 means higher solubility.

[2] = Photochromic property of photochromic laminate made by coating method; type: physicochemical; conditions: for Residual ratio / Color developing density at 23°C: laminate by coating method; for Residual ratio: A96/A0 x 100 after 96 hours accelerated degradation, xenon weather meter X25; for Color developing density at 23°C: absorbance difference after 240 seconds irradiation at the maximum absorption wavelength of the same line
Description: First, the photochromic compound obtained in Example 1, a photoinitiator, and a polymerizable compound were mixed to obtain a curable composition.
The polymerizable compound was a combination of the following radical polymerizable monomers:
Polyethylene glycol dimethacrylate (average molecular weight: 736): 42 parts by mass • Polyethylene glycol dimethacrylate (average molecular weight: 536): 12 parts by mass • Trimethylolpropane methacrylate: 38 parts by mass γ-Methacryloyloxypropyltrimethoxysilane: 2 parts by mass Glycidyl methacrylate: 1 part by mass.
Note that, in the curable composition, the photochromic compound was added in an amount of 0.25 mmol taking a total amount of the radical polymerizable monomers as 100 g.
Phenylbis(2,4,6-trimethylbenzoyl)phosphine oxide (photoinitiator: Omnirad 819): 0.3 parts by mass Ethylene bis(oxyethylene) bis[3-(5-tert-butyl-4-hydroxy-m-tolyl) propionate] (stabilizer, Irganox 245): 1 part by mass Bis(1,2,2,6,6-pentamethyl-4-piperidyl)sebacate: 3 parts by mass Leveling agent (L-7001) manufactured by DuPont Toray Specialty Materials K.K.: 0.1 parts by mass.
Using this curable composition, a photochromic laminate was obtained by a lamination method including polymerization as follows.
First, a thiourethane plastic lens with a center thickness of 2 mm and a refractive index of 1.60 was prepared as an optical substrate. Note that, the thiourethane plastic lens had been alkaline-etched in a 10% sodium hydroxide aqueous solution at 50°C for 5 minutes in advance, and then thoroughly washed with distilled water.
A spin coater (1H-DX2, manufactured by MIKASA CO., LTD) was used to coat a surface of the above-mentioned plastic lens with a moisture-curing primer (product name: TR-SC-P, manufactured by Tokuyama Corporation) at a rotation speed of 70 rpm for 15 seconds, followed by 1000 rpm for 10 seconds. Then, about 2 g of the photochromic curable composition obtained above was spin-coated at a rotation speed of 60 rpm for 40 seconds, followed by 600 rpm for 10 to 20 seconds so as to achieve a photochromic coating layer with a thickness of 40 µm.
The lens of which surface had been coated with the photochromic curable composition (photochromic coating layer) was irradiated with light for 90 seconds in a nitrogen gas atmosphere using a metal halide lamp with an output of 200 mW/cm^2 to cure the coating. The resultant was then further heated at 110°C for 1 hour to produce a photochromic laminate with a photochromic layer.
Photochromic laminates were produced using the photochromic compounds obtained in Examples 2 to 20 in the same manner as in Example 21.
Photochromic laminates were obtained using photochromic compounds represented by Formulae (A) to (D) below in the same manner as in Example 21. [drawing 89] [drawing 90] [drawing 91] [drawing 92] [drawing 93]
The resulting photochromic laminates were evaluated by the below-mentioned methods. • (1) Photochromic property • [1] Maximum absorption wavelength (λmax): This is the maximum absorption wavelength after color development determined by a spectrophotometer manufactured by Otsuka Electronics Co., Ltd. (instantaneous multichannel photo detector MCPD3000) and was used as an index of a color tone upon color development. • [2] Color developing density at 23°C (A23): This is a difference between an absorbance {ε(240)} after irradiation with light at 23°C for 240 seconds and an absorbance ε(0) when not irradiated with light at the maximum absorption wavelength and was used as an index of a color developing density. The higher this value is, the better a photochromic property is. • [3] Color fading half-life at 23°C [τ1/2 (sec).)]: This is a period of time taken by an absorbance at the maximum absorption wavelength of a sample to decrease to 1/2 of {ε(240)-ε(0)} when irradiation is stopped after irradiation with light at 23°C for 240 seconds, and was used as an index of a color fading rate. The shorter this period of time is, the faster the color fading rate is. • [4] […]

Dissolution for 15 min [1] | Dissolution for 30 min [1] | Dissolution for 45 min [1] | Dissolution for 1 hour [1] | Residual ratio [2] | Color developing density at 23°C [2] | Color fading half-life at 23°C [2] | Compound
3 | 1 | 1 | 1 |  |  |  | CCC(C)C1(CC)c2cc(OC)ccc2-c2c1c1c(c3cc(OC)ccc23)OC(c2ccc(OC)cc2)(c2ccc(N3CCOCC3)cc2)C=C1 (stereo not drawn) [Formula (3-2)]
 |  |  |  | 59% | 1.29 - |  | CCCCCC1(CCCC)c2ccccc2-c2c1c1c(c3cc(OC)c(N4CCCc5ccccc54)cc23)OC(c2ccc(OC)cc2)(c2ccc(OCCC)cc2)C=C1 (stereo not drawn) [Formula (16-1)]
3 | 2 | 1 | 1 | 48% and 44% |  |  | CCCCC1(C(C)CC)c2ccccc2-c2c1c1c(c3cc(OC)c(N4CCOCC4)cc23)OC(c2ccc(OC)cc2)(c2ccc(OC)cc2)C=C1 (stereo not drawn) [Formula (20-1)]
 |  |  |  | 64% |  | 2.33 min | CCCOc1ccc(C2(c3ccc(OC)cc3)C=Cc3c4c(c5cc(C)c(OC)cc5c3O2)-c2ccc(N3CCOc5ccccc53)cc2C4(C)CC)cc1 (stereo not drawn) [Formula (75-2)]
 |  |  |  |  |  | 1.67 min | CCCCC1(CC)c2ccccc2-c2c1c1c(c3cc(OC)c(-c4ccccc4N4CCOCC4)cc23)OC(c2ccc(OC)cc2)(c2ccc(OC)cc2)C=C1 (stereo not drawn) [Formula (81-2)]
3 | 2 | 1 | 1 |  |  |  | CCCCC1(CC)c2cc(N(C)c3ccccc3)ccc2-c2c1c1c(c3cc(OC)c(OC)cc23)OC(c2ccc(OC)cc2)(c2ccc(OCCC)cc2)C=C1 (stereo not drawn) [Formula (82-1)]
3 | 2 | 1 | 1 |  |  |  | CCCCCCC1(CCCC)c2cc(OC)ccc2-c2c1c1c(c3cc(OC)c(Sc4c(C)cccc4C)cc23)OC(c2ccc(OC)cc2)(c2ccc(N3CCOCC3)cc2)C=C1 (stereo not drawn) [Formula (85-1)]
4 | 3 | 3 | 2 |  |  |  | CCC1(CC)c2ccccc2-c2c1c1c(c3cc(OC)c(N(C)c4ccccc4)cc23)OC(c2ccc(OC)cc2)(c2ccc(OC)cc2)C=C1 [Formula (F), reference compound]
4 | 4 | 3 | 3 |  |  |  | COc1ccc(C2(c3ccc(N4CCOCC4)cc3)C=Cc3c4c(c5cc(Sc6c(C)cccc6C)c(OC)cc5c3O2)-c2ccc(OC)cc2C4(C)C)cc1 (stereo not drawn) [Formula (K), reference compound]

Further lines, the compound ahead of its results:

Compound | Dissolution for 15 min [1] | Dissolution for 30 min [1] | Dissolution for 45 min [1] | Dissolution for 1 hour [1] | Residual ratio [2] | Color developing density at 23°C [2] | Color fading half-life at 23°C [2]
CCCOc1ccc(C2(c3ccc(OC)cc3)C=Cc3c4c(c5cc(OC)c(OC)cc5c3O2)-c2ccc(Sc3cccc(C(F)(F)F)c3)cc2C4(CC)CCC)cc1 (stereo not drawn) [Formula (72-3)] |  |  |  |  | 57% |  | 
CCCCC1(CC)c2ccccc2-c2c1c1c(c3cc(OC)c(-c4ccc(N(c5ccccc5)c5ccccc5)cc4)cc23)OC(c2ccc(N(C)c3ccccc3)cc2)(c2ccc(OCCC)c(F)c2)C=C1 (stereo not drawn) [Formula (76-6)] |  |  |  |  | 68% |  | 1.17 min
CCCC1(CC)c2ccccc2-c2c1c1c(c3cc(OC)c(N(C)c4ccccc4)cc23)OC(c2ccc(OC)cc2)(c2ccc(N(c3ccccc3)c3ccccc3)cc2)C=C1 (stereo not drawn) [Formula (83-2)] |  |  |  |  | 74% | 1.25 - | 1.53 min
CCCC1(CC)c2cc(C)ccc2-c2c1c1c(c3cc(OC)c(-c4ccc(N5CCOCC5)cc4)cc23)OC(c2ccc(C)cc2)(c2ccc(N(C)c3ccccc3)cc2)C=C1 (stereo not drawn) [Formula (84-1)] |  |  |  |  | 62% |  | 2 min
CCCOc1ccc(C2(c3ccc(N(C)c4ccccc4)cc3)C=Cc3c4c(c5cc(-c6ccc(OC)cc6OC)c(OC)cc5c3O2)-c2ccccc2C4(C)CC)cc1F (stereo not drawn) [Formula (86-1)] |  |  |  |  | 58% |  | 
CCCC1(CC)c2cc(Sc3c(C)cccc3C)ccc2-c2c1c1c(c3cc(OC)ccc23)OC(c2ccc(OC)cc2)(c2ccc(N(C)c3ccccc3)cc2)C=C1 (stereo not drawn) [Formula (88-1)] |  |  |  |  | 68% |  | 0.717 min
CCCC1(C)c2ccccc2-c2c1c1c(c3cc(OC)c(-c4c(OC)cc(OC)cc4OC)cc23)OC(c2ccc(OC)cc2)(c2ccc(N(c3ccccc3)c3ccccc3)cc2)C=C1 (stereo not drawn) [Formula (89-1)] | 4 | 2 | 1 | 1 |  |  | 
COc1ccc(C2(c3ccc(N4CCOCC4)cc3)C=Cc3c4c(c5ccc(OC)cc5c3O2)-c2ccc(OC)cc2C42CC(C)(C)CC(C)(C)C2)cc1 (stereo not drawn) [Formula (E), reference compound] | 4 | 3 | 3 | 2 |  |  | 
COc1ccc(C2(c3ccc(N4CCOCC4)cc3)C=Cc3c4c(c5cc(-c6ccc(N7CCOCC7)cc6)c(OC)cc5c3O2)-c2ccc(C)cc2C4(C)C)cc1 (stereo not drawn) [Formula (G), reference compound] | 4 | 3 | 3 | 2 |  |  | 
COc1ccc(C2(c3ccc(OC)cc3)C=Cc3c4c(c5ccc(OC)cc5c3O2)-c2ccc(OC(F)(F)F)cc2C4(C)C)cc1 [Formula (H), reference compound] | 4 | 3 | 3 | 2 |  |  | 
CCCOc1ccc(C2(c3ccc(OC)cc3)C=Cc3c4c(c5cc(OC)c(OC)cc5c3O2)-c2ccc(N(C)c3ccccc3)cc2C4(C)C)cc1 (stereo not drawn) [Formula (I), reference compound] | 4 | 4 | 3 | 3 |  |  | 
CCC1(CC)CCC2(CC1)c1cc(OC)ccc1-c1c2c2c(c3cc(OC)c(Sc4c(C)cccc4C)cc13)OC(c1ccc(OC)cc1)(c1ccc(N3CCOCC3)cc1)C=C2 (stereo not drawn) [Formula (J), reference compound] | 4 | 3 | 3 | 2 |  |  | 
COc1ccc(C2(c3ccc(N(c4ccccc4)c4ccccc4)cc3)C=Cc3c4c(c5cc(-c6c(OC)cc(OC)cc6OC)c(OC)cc5c3O2)-c2ccccc2C4(C)C)cc1 (stereo not drawn) [Formula (L), reference compound] | 4 | 3 | 2 | 1 |  |  | 
